Where only a bound is given, the exact number is not on record here.

Drawing on ChEMBL document CHEMBL3228005, “Inhibition of rat passive cutaneous anaphylaxis by 3-(tetrazol-5-yl)quinolines” (1979), this text covers minimal effective dose, Ratio and ED50 for 71 compounds.

Common to all, as to type: functional
Test [1] has as its system Rattus norvegicus. Briefly: Inhibition of passive cutaneous anaphylaxis in po dosed Sprague-Dawley rat. The settings on record: read-out: MED.
Test [2] relates to Rattus norvegicus. Briefly: Inhibition of passive cutaneous anaphylaxis in ip dosed Sprague-Dawley rat. As to conditions: for minimal effective dose: read-out: MED.
The test system of test [3] is Rattus norvegicus. Briefly: Inhibition of passive cutaneous anaphylaxis in po dosed Sprague-Dawley rat administered with ball-milled suspension. As to conditions: read-out: MED.
In test [4] the test system is Rattus norvegicus. The test is described as follows: Ratio of disodium cromoglycate MED to compound MED for inhibition of passive cutaneous anaphylaxis in ip dosed Sprague-Dawley rat.
Test [5] deals with Rattus norvegicus. Briefly: Ratio of doxantrazole MED to compound MED for inhibition of passive cutaneous anaphylaxis in po dosed Sprague-Dawley rat.
The subject of test [6] is Rattus norvegicus. Briefly: Inhibition of passive cutaneous anaphylaxis in ip dosed Sprague-Dawley rat administered with ball-milled suspension. As to conditions: read-out: MED.

`O=C(O)c1cnc2c(F)cccc2c1O`: the minimal effective dose in test [1] was over 100 mg/kg.

Consider `COc1cccc2c(O)c(C(=O)O)cnc12`, for which the minimal effective dose in test [2] is 10 mg/kg; in test [1] it was over 100 mg/kg.

Consider `O=C(O)c1cnc2ccccc2c1`, for which the minimal effective dose in test [2] came out at 50 mg/kg; in test [1], 150 mg/kg.

Turning to `Cc1cc(F)c2[nH]cc(-c3nn[nH]n3)c(=O)c2c1.O`, the minimal effective dose in test [2] is 2.5 mg/kg; in test [1], over 10 mg/kg.

`Cl.O=C(O)c1cnc2ccc(F)cc2c1`: in test [1], the minimal effective dose is over 50 mg/kg.

On to `O=C(O)c1cnc2ccc(C(F)(F)F)cc2c1`, for which the minimal effective dose is over 25 mg/kg in test [2] and over 50 mg/kg in test [1].

As for `COc1ccc2ncc(C(=O)O)cc2c1`, the minimal effective dose in test [2] is over 5 mg/kg.

On to `O=C(O)c1cnc2ccc(OC3CCCCC3)cc2c1`, for which the minimal effective dose in test [2] was over 25 mg/kg.

Take `O=C(O)c1cnc2ccc(C3CCCCC3)cc2c1`: the minimal effective dose in test [2] was over 25 mg/kg.

`O=C(O)c1cnc2cc(C(F)(F)F)ccc2c1`: the minimal effective dose in test [2] and in test [1] was over 25 mg/kg throughout.

`COc1ccc2cc(C(=O)O)cnc2c1.Cl`: in test [2], the minimal effective dose is over 25 mg/kg.

Turning to `O.O=C(O)c1cnc2c(F)cccc2c1`, the minimal effective dose in test [2] was over 25 mg/kg; in test [1], 150 mg/kg.

For `O=C(O)c1cnc2c(Cl)cccc2c1`, the minimal effective dose is 25 mg/kg in test [2] and 150 mg/kg in test [1].

As to `O=C(O)c1cnc2c(C(F)(F)F)cccc2c1`, the values for the minimal effective dose in test [2] and in test [1] were 50 mg/kg and 75 mg/kg, respectively.

Consider `Cc1cccc2cc(C(=O)O)cnc12`, for which the minimal effective dose in test [2] is over 50 mg/kg; in test [1] it was over 25 mg/kg.

For `CCc1cccc2cc(C(=O)O)cnc12`, the minimal effective dose in test [2] was over 50 mg/kg; in test [1] it was 75 mg/kg.

As for `COc1cccc2cc(C(=O)O)cnc12`, the minimal effective dose turned out to be 25 mg/kg in test [2] and 150 mg/kg in test [1].

With `CCOc1cccc2cc(C(=O)O)cnc12`, the minimal effective dose in test [2] is over 25 mg/kg; in test [1] it was over 50 mg/kg.

Turning to `COc1ccc(OC)c2ncc(C(=O)O)cc12`, the minimal effective dose in test [2] is over 25 mg/kg; in test [1], over 50 mg/kg.

On to `O=C(O)c1cnc2c(F)cc(F)cc2c1`, for which, in test [2], the minimal effective dose came to 25 mg/kg.

For the compound `Cc1ccc2cc(C(=O)O)cnc2c1C`, the minimal effective dose came to 25 mg/kg in test [2] and 50 mg/kg in test [1].

Take `O=C(O)c1cnc2c3c(ccc2c1)CCCC3`: the minimal effective dose came to 25 mg/kg in test [2] and 50 mg/kg in test [1].

Regarding `O=C(O)c1cnc2c(ccc3ccccc32)c1`, the minimal effective dose was found to be 25 mg/kg in test [2] and 50 mg/kg in test [1].

Consider `c1ccc2ncc(-c3nn[nH]n3)cc2c1`, for which the results for the minimal effective dose in test [2] and in test [1] were 10 mg/kg and 25 mg/kg, respectively.

Consider `Fc1ccc2ncc(-c3nn[nH]n3)cc2c1`, for which the minimal effective dose is under 25 mg/kg in test [2] and 50 mg/kg in test [1].

Consider `COc1ccc2ncc(-c3nn[nH]n3)cc2c1.O`, for which the minimal effective dose in test [2] was 10 mg/kg; in test [1], over 25 mg/kg.

Consider `Cl.c1cc2ncc(-c3nn[nH]n3)cc2cc1OC1CCCCC1`, for which the minimal effective dose in test [2] worked out at 5 mg/kg; in test [1], 10 mg/kg.

In the case of `CCCCc1ccc2ncc(-c3nn[nH]n3)cc2c1`, the minimal effective dose was 5 mg/kg in test [2] and over 25 mg/kg in test [1].

Consider `Cl.c1nc2ccc(C3CCCCC3)cc2cc1-c1nn[nH]n1`, for which the minimal effective dose in test [2] was 5 mg/kg; in test [1], over 25 mg/kg.

In the case of `FC(F)(F)c1ccc2cc(-c3nn[nH]n3)cnc2c1`, the minimal effective dose in test [2] is under 10 mg/kg; in test [1], 25 mg/kg.

For the compound `COc1ccc2cc(-c3nn[nH]n3)cnc2c1.Cl`, the minimal effective dose in test [2] is 5 mg/kg; in test [1], over 25 mg/kg.

Turning to `Fc1cccc2cc(-c3nn[nH]n3)cnc12`, the minimal effective dose in test [2] was over 10 mg/kg.

In the case of `FC(F)(F)c1cccc2cc(-c3nn[nH]n3)cnc12`, the minimal effective dose in test [2] was under 25 mg/kg; in test [1] it was 25 mg/kg.

With `Cc1cccc2cc(-c3nn[nH]n3)cnc12`, the minimal effective dose in test [2] is under 25 mg/kg; in test [1], 25 mg/kg.

For `CCc1cccc2cc(-c3nn[nH]n3)cnc12`, the minimal effective dose in test [2] came to 2.5 mg/kg; in test [1], 5 mg/kg.

As for `COc1cccc2cc(-c3nn[nH]n3)cnc12`, the minimal effective dose in test [2] was 2.5 mg/kg; in test [1] it was over 25 mg/kg.

For the compound `COc1ccc(OC)c2ncc(-c3nn[nH]n3)cc12`, the values for the minimal effective dose in test [2] and in test [1] were 5 mg/kg and over 50 mg/kg, respectively.

On to `Fc1cc(F)c2ncc(-c3nn[nH]n3)cc2c1`, for which the minimal effective dose in test [2] was 10 mg/kg; in test [1], over 50 mg/kg.

For `Cc1ccc2cc(-c3nn[nH]n3)cnc2c1C`, the minimal effective dose in test [2] was determined as 1 mg/kg; in test [1] it was 25 mg/kg.

With `c1nc2c3c(ccc2cc1-c1nn[nH]n1)CCCC3`, the minimal effective dose in test [2] and in test [1] was 5 mg/kg in each case.

As for `c1ccc2c(c1)ccc1cc(-c3nn[nH]n3)cnc12`, the minimal effective dose amounted to 5 mg/kg in test [2] and 10 mg/kg in test [1].

`Cc1cc([N+](=O)[O-])c2cc(-c3nn[nH]n3)cnc2c1C`: the values for the minimal effective dose in test [2] and in test [1] were 2.5 mg/kg and 25 mg/kg, respectively.

`O.O=c1c(-c2nn[nH]n2)c[nH]c2ccccc12`: the minimal effective dose in test [2] is 1.25 mg/kg; in test [1] it was over 20 mg/kg.

`O.O=c1c(-c2nn[nH]n2)c[nH]c2ccc(F)cc12`: the minimal effective dose was 1.25 mg/kg in test [2] and over 20 mg/kg in test [1].

Consider `O=c1c(-c2nn[nH]n2)c[nH]c2ccc(Cl)cc12`, for which the results for the minimal effective dose in test [2] and in test [1] were over 10 mg/kg and over 25 mg/kg, respectively.

As to `Cc1ccc2[nH]cc(-c3nn[nH]n3)c(=O)c2c1.O`, the minimal effective dose in test [2] was 1.25 mg/kg; in test [1], over 25 mg/kg.

With `CCc1ccc2[nH]cc(-c3nn[nH]n3)c(=O)c2c1.O`, the figures for the minimal effective dose in test [2], in test [1] and in test [3] were under 5 mg/kg, 0.625 mg/kg and 0.156 mg/kg, respectively.

For `CCc1ccc2c(=O)c(-c3nn[nH]n3)c[nH]c2c1.O`, the figures for the minimal effective dose in test [2] and in test [1] were under 5 mg/kg and over 10 mg/kg, respectively.

As to `COc1ccc2c(=O)c(-c3nn[nH]n3)c[nH]c2c1`, the minimal effective dose in test [2] is 10 mg/kg.

As to `O=c1c(-c2nn[nH]n2)c[nH]c2c(F)cccc12`, the minimal effective dose was 0.625 mg/kg in test [2], 10 mg/kg in test [1] and 2.5 mg/kg in test [3].

`O=c1c(-c2nn[nH]n2)c[nH]c2c(Cl)cccc12`: the values for the Ratio in test [4] and in test [5] were 33 and 32, respectively. Further, the values for the minimal effective dose in test [2] and in test [6] were 0.078 mg/kg and 0.156 mg/kg, respectively.

Take `O=c1c(-c2nn[nH]n2)c[nH]c2c(Br)cccc12`: the minimal effective dose is over 5 mg/kg in test [2] and over 10 mg/kg in test [1].

For the compound `O=c1c(-c2nn[nH]n2)c[nH]c2c(C(F)(F)F)cccc12`, the results for the minimal effective dose in test [2] and in test [1] were 0.156 mg/kg and over 25 mg/kg, respectively.

Consider `Cc1cccc2c(=O)c(-c3nn[nH]n3)c[nH]c12`, for which the minimal effective dose in test [2] was over 5 mg/kg; in test [1], over 10 mg/kg.

For `CCc1cccc2c(=O)c(-c3nn[nH]n3)c[nH]c12`, the figures for the minimal effective dose in test [2] and in test [1] were 0.312 mg/kg and over 25 mg/kg, respectively.

Take `CC(C)c1cccc2c(=O)c(-c3nn[nH]n3)c[nH]c12`: the minimal effective dose stood at 1.25 mg/kg in test [2] and 10 mg/kg in test [1].

Take `COc1cccc2c(=O)c(-c3nn[nH]n3)c[nH]c12.O`: the minimal effective dose in test [2] was determined as 0.15 mg/kg; in test [1] it was 0.312 mg/kg.

With `CC(C)Oc1cccc2c(=O)c(-c3nn[nH]n3)c[nH]c12`, the minimal effective dose is 0.078 mg/kg in test [2] and 1.25 mg/kg in test [1].

Take `CSc1cccc2c(=O)c(-c3nn[nH]n3)c[nH]c12`: the minimal effective dose came out at 10 mg/kg in test [2] and 25 mg/kg in test [1].

Regarding `CS(=O)(=O)c1cccc2c(=O)c(-c3nn[nH]n3)c[nH]c12`, the minimal effective dose in test [2] is 10 mg/kg; in test [1] it was over 25 mg/kg.

In the case of `O=c1c(-c2nn[nH]n2)c[nH]c2c(F)ccc(F)c12`, the minimal effective dose in test [2] is over 0.156 mg/kg; in test [1], 10 mg/kg.

For `O=c1c(-c2nn[nH]n2)c[nH]c2c(Cl)ccc(Cl)c12`, the minimal effective dose was over 0.156 mg/kg in test [2] and 0.312 mg/kg in test [1].

As to `O.O=c1c(-c2nn[nH]n2)c[nH]c2c(Cl)cc(Cl)cc12`, the minimal effective dose was over 0.156 mg/kg in test [2] and over 10 mg/kg in test [1].

As to `O=c1c(-c2nn[nH]n2)c[nH]c2c(Cl)c(Cl)ccc12`, the values for the minimal effective dose in test [2] and in test [1] were over 0.156 mg/kg and over 10 mg/kg, respectively.

Regarding `COc1ccc(OC)c2c(=O)c(-c3nn[nH]n3)c[nH]c12`, the minimal effective dose in test [2] was 1.25 mg/kg; in test [1], over 10 mg/kg.

Consider `O.O=c1c(-c2nn[nH]n2)c[nH]c2c3c(ccc12)CCCC3`, for which, in test [1], the minimal effective dose was over 25 mg/kg.

`COc1ccc2c(O)c(C(=O)O)cnc2c1`: the results for the minimal effective dose in test [2] and in test [1] were over 50 mg/kg and over 100 mg/kg, respectively.

Take `COc1ccc2ncc(C(=O)O)c(O)c2c1`: the results for the minimal effective dose in test [2] and in test [1] were over 50 mg/kg and over 100 mg/kg, respectively.

For the compound `O=C(O)c1cnc2c(Cl)cccc2c1O`, the minimal effective dose in test [1] is over 100 mg/kg.

As a reminder, the ED50 is the dose that gives a 50% effect, or the effect in half of the subjects. Regarding `O=C([O-])c1cc(=O)c2c(OCC(O)COc3cccc4oc(C(=O)[O-])cc(=O)c34)cccc2o1.[Na+].[Na+]` [CROMOLYN SODIUM], it took a dose of 2.6 mg/kg to reach the 50% effect level in test [2] (ED50).

As to `O=C1c2ccccc2S(=O)(=O)c2cc(-c3nn[nH]n3)ccc21` [DOXANTRAZOLE], the minimal effective dose in test [1] is 5 mg/kg.
